Where two headings read alike, the source gives them in different places.
Experiments:
Type in all cases: in vivo
[1] = test system: Zymoseptoria tritici; assay: Leaf blotch of wheat (SEPTTR), disease control on wheat seedlings; settings: low volume application at 121.5 g/H
In short: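 Yuma wheat seedlings with the first leaf fully emerged were sprayed to run-off with compound in acetone plus nine volumes of water containing 110 ppm Triton X-100; track-spray tests used EC formulations with 0.1% Trycol 5941. Z. tritici inoculation came before or after treatment, followed by 100% RH dew periods and a 20 °C greenhouse. Percent control was calculated from severity versus untreated plants.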

[2] = test system: Alternaria solani; assay: Tomato early blight (ALTESO), disease control on tomato plants; settings: 1DP test at 100 ppm, read-out: ALTESO disease control rating
Protocol: Technical grades of materials were dissolved in acetone, which were then mixed with nine volumes of water containing 110 ppm Triton X-100. The fungicide solutions were applied onto wheat seedlings using an automated booth sprayer to run-off. All sprayed plants were allowed to air dry prior to further handling. All fungicides were evaluated using the aforementioned method for their activity vs. all target diseases, unless stated otherwise. Wheat leaf blotch and brown rust activity were also evaluated using track spray applications, in which case the fungicides were formulated as EC formulations, containing 0.1% Trycol 5941 in the spray solutions. Tomato plants (variety Outdoor Girl) were propagated in soil-less Metro mix, with each pot having one plant, and used when 12 to 14 days old. Test plants were inoculated with an aqueous spore suspension of Alternaria solani 24 hr after fungicide treatments. After inoculation the plants were kept in 100% relative humidity (one day in a dark dew chamber followed by two to three days in a lighted dew chamber at 20° C.) to permit spores to germinate and infect the leaf. The plants were then transferred to a growth room at 22° C. for disease to develop. Fungicide formulation, application and disease assessment on the sprayed leaves followed the procedures as described in the Example A.

[3] = test system: Cercospora beticola; assay: Leaf spot of sugar beets (CERCBE), disease control on sugar beet plants; settings: 1DP test at 100 ppm, read-out: CERCBE disease control rating
Protocol: Technical grades of materials were dissolved in acetone, which were then mixed with nine volumes of water containing 110 ppm Triton X-100. The fungicide solutions were applied onto wheat seedlings using an automated booth sprayer to run-off. All sprayed plants were allowed to air dry prior to further handling. All fungicides were evaluated using the aforementioned method for their activity vs. all target diseases, unless stated otherwise. Wheat leaf blotch and brown rust activity were also evaluated using track spray applications, in which case the fungicides were formulated as EC formulations, containing 0.1% Trycol 5941 in the spray solutions. Sugar beet plants (variety HH88) were grown in soil-less Metro mix and trimmed regularly to maintain a uniform plant size prior to test. Plants were inoculated with a spore suspension 24 hr after fungicide treatments. Inoculated plants were kept in a dew chamber at 22° C. for 48 hr then incubated in a greenhouse set at 24° C. under a clear plastic hood with bottom ventilation until disease symptoms were fully expressed. Fungicide formulation, application and disease assessment on the sprayed leaves followed the procedures as described in the Example A.

[4] = test system: Puccinia triticina; assay: Wheat brown rust (PUCCRT), disease control on wheat seedlings; settings: low volume application at 121.5 g/H
In short: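 Compounds in acetone, diluted with nine volumes of water containing 110 ppm Triton X-100, sprayed to run-off on first-leaf Yuma wheat seedlings; track-spray tests used EC formulations with 0.1% Trycol 5941. Puccinia triticina spores applied before or after treatment. Overnight dark dew room at 22° C, 100% humidity, then greenhouse at 24° C.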

[5] = test system: Magnaporthe grisea; Anamorph: Pyricularia oryzae; assay: whole plant or invertebrate; settings: 24 h, read-out: PYRIOR Disease Control
[6] = test system: Rhyncosporium secalis; assay: Barley scald (RHYNSE), disease control on barley seedlings; settings: Hordeum vulgare, 24 h, 1DP (1 Day Protectant) test at 100 ppm
Protocol: Technical grades of materials were dissolved in acetone, which were then mixed with nine volumes of water containing 110 ppm Triton X-100. The fungicide solutions were applied onto wheat seedlings using an automated booth sprayer to run-off. All sprayed plants were allowed to air dry prior to further handling. All fungicides were evaluated using the aforementioned method for their activity vs. all target diseases, unless stated otherwise. Wheat leaf blotch and brown rust activity were also evaluated using track spray applications, in which case the fungicides were formulated as EC formulations, containing 0.1% Trycol 5941 in the spray solutions. Barley seedlings (variety Harrington) were propagated in soil-less Metro mix, with each pot having 8 to 12 plants, and used in the test when first leaf was fully emerged. Test plants were inoculated by an aqueous spore suspension of Rhyncosporium secalis 24 hr after fungicide treatments. After inoculation the plants were kept in a dew room at 20° C. with 100% relative humidity for 48 hr. The plants were then transferred to a greenhouse set at 20° C. for disease to develop. Fungicide formulation, application and disease assessment on the sprayed leaves followed the procedures as described in the Example A.

[7] = 24 h, 1 Day Protectant, read-out: SEPTTR disease control, 1DP, LV activity
[8] = 72 h, 3 Day Curative, read-out: SEPTTR disease control, 3DC, LV activity
[9] = 24 h, 1 Day Protectant, read-out: PUCCRT disease control, 1DP, LV activity
[10] = 72 h, 3 Day Curative, read-out: PUCCRT disease control, 3DC, LV activity

| SMILES | pest or weed control at 121.5 g/ha [1, 7] [%] | pest or weed control at 121.5 g/ha [1, 8] [%] | pest or weed control at 100 ppm [2] [%] | pest or weed control at 100 ppm [3] [%] | pest or weed control at 121.5 g/ha [4, 9] [%] | pest or weed control at 121.5 g/ha [4, 10] [%] | pest or weed control at 100 ppm [5] [%] | pest or weed control at 100 ppm [6] [%] |
| --- | --- | --- | --- | --- | --- | --- | --- | --- |
| COc1ccnc(C(=O)N[C@@H](C)C(=O)O[C@@H](C)[C@H](c2cccc(F)c2C)C(C)C)c1OC(C)=O [Compound 359] | < 80 | > 80 | < 80 | > 80 | > 80 | > 80 | > 80 | > 80 |
| COc1cc[n+]([O-])c(C(=O)N[C@@H](C)C(=O)O[C@@H](C)[C@H](c2ccc(F)cc2C)C(C)C)c1O [Compound 218] | > 80 | < 80 | < 0 | > 80 | > 80 | < 80 | > 80 | < 80 |
| COc1ccnc(C(=O)N[C@@H](C)C(=O)O[C@@H](C)[C@H](c2ccc(F)cc2C)C(C)C)c1OC(C)=O [Compound 186] | > 80 | > 80 | > 80 | > 80 | > 80 | > 80 | > 80 | < 80 |
| COc1ccnc(C(=O)N[C@@H](C)C(=O)O[C@@H](C)[C@H](c2ccc(F)cc2C)C(C)C)c1OC(=O)CC(C)C [Compound 356] | > 80 | > 80 | > 80 | > 80 | > 80 | < 80 | < 80 | < 80 |

Reference: patent US20180186742A1, “PICOLINAMIDES AS FUNGICIDES” (Dow AgroSciences LLC, priority 2017, published 2018)
